Experimental data from ChEMBL document CHEMBL5634161, “Discovery of benzamide-based PI3K/HDAC dual inhibitors with marked pro-apoptosis activity in lymphoma cells” (Eur J Med Chem, 2023).
Calls of active or inactive are those of the source. The calls are words filed in the database; no cut-off is given here.

Key:
JeKo-1 [1] = assay: Upregulation of tubulin acetylation in human JeKo-1 cells at 0.25 to 1 uM incubated for 24 hrs by Western blot analysis; assay type: functional, cell-based; settings: dose 0.25-1 µM
[2] = Stability in human liver microsomes assessed as compound remaining at […] preincubated for 5 mins followed by NADPH addition and measured after 45 mins by LC-MS/MS analysis; assay type: ADME, Microsome; settings: time 50 min, read-out: Stability
JeKo-1 [3] = assay: Induction of apoptosis in human JeKo-1 cells assessed as necrotic cells at 1 uM incubated for 48 hrs by Annexin-V/FITC and PI staining based flow cytometric analysis (reference value: 1.05%); assay type: functional
CYP2C9 = CYP2C9 (Homo sapiens, UniProt P11712); assay: Inhibition of CYP2C9 in human liver microsomes using diclofenac as substrate at 10 uM in presence of NADPH regenerating system by LC-MS/MS analysis relative to control; assay type: ADME, Microsome; settings: probe diclofenac
[4] = Stability in mouse liver microsomes assessed as half-life at […] preincubated for 5 mins followed by NADPH addition and measured upto 45 mins by LC-MS/MS analysis; assay type: ADME, Microsome; settings: time < 50 min
[5] = Stability in mouse liver microsomes assessed as compound remaining at […] preincubated for 5 mins followed by NADPH addition and measured after 30 mins by LC-MS/MS analysis; assay type: ADME, Microsome; settings: time 35 min, read-out: Stability
Histone deacetylase 8 = Histone deacetylase 8 (Homo sapiens, UniProt Q9BY41); assay: Inhibition of HDAC8 (unknown origin) using Boc-Lys(acetyl)-AMC as substrate preincubated for 1 hrs followed by substrate addition and measured after 2 hrs by spectrophotometer based fluorometric assay
JeKo-1 [6] = assay: Antiproliferative activity against human JeKo-1 cells incubated for 48 hrs by resazurin dye based fluorescence micro plate reader analysis; assay type: functional, cell-based; settings: JeKo-1, 48 h
JeKo-1 [7] = assay: Induction of apoptosis in human JeKo-1 cells assessed as late apoptotic cells at 0.5 uM incubated for 48 hrs by Annexin-V/FITC and PI staining based flow cytometric analysis (reference value: 3.66%); assay type: functional
Histone deacetylase 11 = Histone deacetylase 11 (Homo sapiens, UniProt Q96DB2); assay: Inhibition of HDAC11 (unknown origin) using Boc-Lys(acetyl)-AMC as substrate preincubated for 1 hrs followed by substrate addition and measured after 2 hrs by spectrophotometer based fluorometric assay
[8] = Stability in rat liver microsomes assessed as compound remaining at […] preincubated for 5 mins followed by NADPH addition and measured after 30 mins by LC-MS/MS analysis; assay type: ADME, Microsome; settings: time 35 min, read-out: Stability
[9] = Stability in rat liver microsomes assessed as compound remaining at 0.5 mM preincubated for 5 mins followed by NADPH addition and measured immediately by LC-MS/MS analysis; assay type: ADME, Microsome; settings: read-out: Stability
[10] = Half-life in ICR mouse at 1 mg/kg, iv measured after 24 hrs by LC-MS/MS analysis; assay type: ADME, organism-based; settings: in vivo
[11] = Volume of distribution at steady state in ICR mouse at 1 mg/kg, iv measured after 24 hrs by LC-MS/MS analysis; assay type: ADME, organism-based; settings: in vivo
[12] = Clearance in ICR mouse at 1 mg/kg, iv measured after 24 hrs by LC-MS/MS analysis; assay type: ADME, organism-based; settings: in vivo
JeKo-1 [13] = assay: Induction of apoptosis in human JeKo-1 cells assessed as early apoptotic cells at 1 uM incubated for 48 hrs by Annexin-V/FITC and PI staining based flow cytometric analysis (reference value: […]); assay type: functional
CYP2D6 = CYP2D6 (Homo sapiens, UniProt P10635); assay: Inhibition of CYP2D6 in human liver microsomes using bufuralol as substrate at 10 uM in presence of NADPH regenerating system by LC-MS/MS analysis relative to control; assay type: ADME, Microsome; settings: probe bufuralol
Histone deacetylase 9 = Histone deacetylase 9 (Homo sapiens, UniProt Q9UKV0); assay: Inhibition of HDAC9 (unknown origin) using Boc-Lys(acetyl)-AMC as substrate preincubated for 1 hrs followed by substrate addition and measured after 2 hrs by spectrophotometer based fluorometric assay
[14] = Stability in rat liver microsomes assessed as compound remaining at 0.5 mM preincubated for 5 mins followed by NADPH addition and measured after 45 mins by LC-MS/MS analysis; assay type: ADME, Microsome; settings: time 50 min, read-out: Stability
JeKo-1 [15] = assay: Effect on total AKT protein level in human JeKo-1 cells at 0.25 uM incubated for 24 hrs by Western blot analysis; assay type: functional, cell-based
HL-60 = assay: Antiproliferative activity against human HL-60 cells incubated for 48 hrs by resazurin dye based fluorescence micro plate reader analysis; assay type: functional, cell-based; settings: HL-60, 48 h
[16] = Stability in mouse liver microsomes assessed as compound remaining at 0.5 mM preincubated for 5 mins followed by NADPH addition and measured immediately by LC-MS/MS analysis; assay type: ADME, Microsome; settings: read-out: Stability
Histone deacetylase 2 = Histone deacetylase 2 (Homo sapiens, UniProt Q92769); assay: Inhibition of HDAC2 (unknown origin) using Boc-Lys(acetyl)-AMC as substrate preincubated for 1 hrs followed by substrate addition and measured after 2 hrs by spectrophotometer based fluorometric assay
[17] = Stability in human liver microsomes assessed as half-life at […] preincubated for 5 mins followed by NADPH addition and measured upto 45 mins by LC-MS/MS analysis; assay type: ADME, Microsome; settings: time < 50 min
Histone deacetylase 7 = Histone deacetylase 7 (Homo sapiens, UniProt Q8WUI4); assay: Inhibition of HDAC7 (unknown origin) using Boc-Lys(acetyl)-AMC as substrate preincubated for 1 hrs followed by substrate addition and measured after 2 hrs by spectrophotometer based fluorometric assay
JeKo-1 [18] = assay: Induction of apoptosis in human JeKo-1 cells assessed as late apoptotic cells at 1 uM incubated for 48 hrs by Annexin-V/FITC and PI staining based flow cytometric analysis (reference value: 3.66%); assay type: functional
[19] = Stability in mouse liver microsomes assessed as compound remaining at […] preincubated for 5 mins followed by NADPH addition and measured after 45 mins by LC-MS/MS analysis; assay type: ADME, Microsome; settings: time 50 min, read-out: Stability
[20] = Stability in human liver microsomes assessed as compound remaining at […] preincubated for 5 mins followed by NADPH addition and measured after 30 mins by LC-MS/MS analysis; assay type: ADME, Microsome; settings: time 35 min, read-out: Stability
JeKo-1 [21] = assay: Induction of apoptosis in human JeKo-1 cells assessed as early apoptotic cells at 0.25 uM incubated for 48 hrs by Annexin-V/FITC and PI staining based flow cytometric analysis (reference value: […]); assay type: functional
[22] = Stability in human liver microsomes assessed as compound remaining at […] preincubated for 5 mins followed by NADPH addition and measured immediately by LC-MS/MS analysis; assay type: ADME, Microsome; settings: read-out: Stability
[23] = target: Polyamine deacetylase HDAC10 (Homo sapiens, UniProt Q969S8); assay: Inhibition of HDAC10 (unknown origin) using Boc-Lys(acetyl)-AMC as substrate preincubated for 1 hrs followed by substrate addition and measured after 2 hrs by spectrophotometer based fluorometric assay
[24] = AUC (0 to infinity) in ICR mouse at 1 mg/kg, iv measured after 24 hrs by LC-MS/MS analysis; assay type: ADME, organism-based; settings: in vivo
Histone deacetylase 1 = Histone deacetylase 1 (Homo sapiens, UniProt Q13547); assay: Inhibition of HDAC1 (unknown origin) using Boc-Lys(acetyl)-AMC as substrate preincubated for 1 hrs followed by substrate addition and measured after 2 hrs by spectrophotometer based fluorometric assay
MDA-MB-231 = assay: Antiproliferative activity against human MDA-MB-231 cells incubated for 48 hrs by resazurin dye based fluorescence micro plate reader analysis; assay type: functional, cell-based; settings: MDA-MB-231, 48 h

Sequence of CYP2C9 (P11712 whole entry): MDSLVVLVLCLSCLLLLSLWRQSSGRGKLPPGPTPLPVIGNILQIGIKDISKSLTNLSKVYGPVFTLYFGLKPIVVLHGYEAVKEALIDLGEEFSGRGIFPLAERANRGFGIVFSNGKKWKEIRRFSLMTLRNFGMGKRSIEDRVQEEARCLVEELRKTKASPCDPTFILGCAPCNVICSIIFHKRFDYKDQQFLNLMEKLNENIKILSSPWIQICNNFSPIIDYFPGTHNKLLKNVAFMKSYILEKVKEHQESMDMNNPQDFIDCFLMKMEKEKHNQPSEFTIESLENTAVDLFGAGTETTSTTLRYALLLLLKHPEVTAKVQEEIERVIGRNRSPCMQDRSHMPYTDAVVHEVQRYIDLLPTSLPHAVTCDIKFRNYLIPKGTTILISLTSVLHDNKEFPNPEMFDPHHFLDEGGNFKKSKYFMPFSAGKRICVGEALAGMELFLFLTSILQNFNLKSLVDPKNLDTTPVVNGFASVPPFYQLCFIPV
Sequence of Polyamine deacetylase HDAC10 (Q969S8 whole entry): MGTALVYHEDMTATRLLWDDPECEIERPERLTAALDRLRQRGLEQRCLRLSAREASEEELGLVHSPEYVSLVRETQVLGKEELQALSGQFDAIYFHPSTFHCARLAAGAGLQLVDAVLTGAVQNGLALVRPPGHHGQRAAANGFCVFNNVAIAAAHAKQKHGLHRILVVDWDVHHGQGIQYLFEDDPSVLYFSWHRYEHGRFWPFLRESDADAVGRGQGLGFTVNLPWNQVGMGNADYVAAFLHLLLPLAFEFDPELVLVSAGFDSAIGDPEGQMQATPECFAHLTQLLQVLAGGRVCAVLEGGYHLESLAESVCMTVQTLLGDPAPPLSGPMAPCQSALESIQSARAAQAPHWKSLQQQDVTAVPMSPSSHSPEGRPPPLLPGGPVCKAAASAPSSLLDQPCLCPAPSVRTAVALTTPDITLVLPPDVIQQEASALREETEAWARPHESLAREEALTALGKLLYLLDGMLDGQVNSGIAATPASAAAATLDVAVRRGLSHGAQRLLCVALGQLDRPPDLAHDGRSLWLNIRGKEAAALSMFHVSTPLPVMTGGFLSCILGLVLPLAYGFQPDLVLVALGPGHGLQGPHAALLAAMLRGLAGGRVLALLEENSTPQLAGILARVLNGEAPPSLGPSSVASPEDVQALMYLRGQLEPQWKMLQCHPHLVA
Sequence of Histone deacetylase 11 (Q96DB2 whole entry): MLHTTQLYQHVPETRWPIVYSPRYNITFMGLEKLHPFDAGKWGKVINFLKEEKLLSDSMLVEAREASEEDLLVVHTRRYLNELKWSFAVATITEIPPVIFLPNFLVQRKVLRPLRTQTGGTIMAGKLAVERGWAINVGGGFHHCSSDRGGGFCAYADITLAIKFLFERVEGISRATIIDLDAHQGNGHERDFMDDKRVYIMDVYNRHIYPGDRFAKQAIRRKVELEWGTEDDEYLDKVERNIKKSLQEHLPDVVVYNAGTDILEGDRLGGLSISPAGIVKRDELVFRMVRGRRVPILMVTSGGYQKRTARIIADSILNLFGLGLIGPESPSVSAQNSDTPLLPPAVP
Sequence of Histone deacetylase 7 (Q8WUI4 whole entry): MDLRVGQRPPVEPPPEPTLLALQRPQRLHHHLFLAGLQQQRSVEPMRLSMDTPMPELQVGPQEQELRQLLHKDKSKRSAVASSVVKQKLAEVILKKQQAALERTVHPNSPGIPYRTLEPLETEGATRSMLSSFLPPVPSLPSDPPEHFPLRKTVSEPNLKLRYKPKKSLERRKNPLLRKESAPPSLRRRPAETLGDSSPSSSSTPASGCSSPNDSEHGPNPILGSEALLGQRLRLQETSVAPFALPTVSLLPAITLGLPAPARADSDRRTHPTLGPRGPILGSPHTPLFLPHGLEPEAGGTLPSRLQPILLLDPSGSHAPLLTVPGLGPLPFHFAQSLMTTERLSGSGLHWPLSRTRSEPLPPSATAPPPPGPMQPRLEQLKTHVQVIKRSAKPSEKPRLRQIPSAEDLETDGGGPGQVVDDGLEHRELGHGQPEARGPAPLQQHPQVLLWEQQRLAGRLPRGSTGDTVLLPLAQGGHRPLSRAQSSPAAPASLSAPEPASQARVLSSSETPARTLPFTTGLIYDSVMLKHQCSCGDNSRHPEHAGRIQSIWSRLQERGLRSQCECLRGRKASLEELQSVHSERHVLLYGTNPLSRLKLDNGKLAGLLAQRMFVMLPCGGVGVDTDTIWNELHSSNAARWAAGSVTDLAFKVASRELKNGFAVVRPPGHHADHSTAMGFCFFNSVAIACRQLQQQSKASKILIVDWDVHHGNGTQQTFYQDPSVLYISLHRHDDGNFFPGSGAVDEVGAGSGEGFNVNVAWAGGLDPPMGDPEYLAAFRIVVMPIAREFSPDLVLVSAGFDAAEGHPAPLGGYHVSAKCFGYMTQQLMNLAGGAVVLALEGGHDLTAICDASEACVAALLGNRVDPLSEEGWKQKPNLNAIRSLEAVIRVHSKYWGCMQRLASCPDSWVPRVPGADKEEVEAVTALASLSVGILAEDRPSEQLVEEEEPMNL
Sequence of Histone deacetylase 2 (Q92769 whole entry): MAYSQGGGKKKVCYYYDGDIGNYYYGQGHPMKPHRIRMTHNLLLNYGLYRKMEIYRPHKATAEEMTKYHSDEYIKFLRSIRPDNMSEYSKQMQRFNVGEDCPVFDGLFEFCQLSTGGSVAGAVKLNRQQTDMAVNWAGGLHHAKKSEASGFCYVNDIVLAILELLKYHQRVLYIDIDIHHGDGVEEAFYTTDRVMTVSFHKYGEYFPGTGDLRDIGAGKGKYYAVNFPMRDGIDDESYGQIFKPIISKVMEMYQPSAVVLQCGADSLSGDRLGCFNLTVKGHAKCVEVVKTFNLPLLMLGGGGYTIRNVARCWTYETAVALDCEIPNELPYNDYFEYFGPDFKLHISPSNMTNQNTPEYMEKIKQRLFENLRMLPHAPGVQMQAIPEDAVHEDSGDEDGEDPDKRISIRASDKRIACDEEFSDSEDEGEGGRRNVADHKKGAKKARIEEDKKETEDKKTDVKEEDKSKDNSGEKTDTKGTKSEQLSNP
Sequence of Histone deacetylase 8 (Q9BY41 whole entry): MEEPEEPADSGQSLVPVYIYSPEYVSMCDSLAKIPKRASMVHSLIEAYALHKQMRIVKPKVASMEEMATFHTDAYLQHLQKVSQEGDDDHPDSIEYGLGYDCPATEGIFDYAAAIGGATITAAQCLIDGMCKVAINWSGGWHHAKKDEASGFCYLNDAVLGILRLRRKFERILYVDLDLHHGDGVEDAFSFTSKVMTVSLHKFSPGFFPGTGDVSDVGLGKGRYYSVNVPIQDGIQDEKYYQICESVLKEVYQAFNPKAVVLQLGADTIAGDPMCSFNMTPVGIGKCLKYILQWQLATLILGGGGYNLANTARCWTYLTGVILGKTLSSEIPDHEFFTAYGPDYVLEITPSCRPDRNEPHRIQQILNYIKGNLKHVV
Sequence of Histone deacetylase 1 (Q13547 whole entry): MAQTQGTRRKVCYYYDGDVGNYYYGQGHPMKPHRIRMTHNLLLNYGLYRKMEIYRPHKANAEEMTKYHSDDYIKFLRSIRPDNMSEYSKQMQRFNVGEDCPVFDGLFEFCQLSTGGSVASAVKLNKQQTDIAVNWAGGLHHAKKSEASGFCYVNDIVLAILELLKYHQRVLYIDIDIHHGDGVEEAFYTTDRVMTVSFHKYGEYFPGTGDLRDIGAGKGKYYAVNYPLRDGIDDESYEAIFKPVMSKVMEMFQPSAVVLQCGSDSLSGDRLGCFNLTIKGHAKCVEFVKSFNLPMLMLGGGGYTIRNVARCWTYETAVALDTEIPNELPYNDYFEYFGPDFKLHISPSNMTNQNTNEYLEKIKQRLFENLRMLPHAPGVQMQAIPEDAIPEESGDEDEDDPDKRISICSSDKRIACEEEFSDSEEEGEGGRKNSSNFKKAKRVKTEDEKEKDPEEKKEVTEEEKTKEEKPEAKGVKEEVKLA
Sequence of CYP2D6 (P10635 whole entry): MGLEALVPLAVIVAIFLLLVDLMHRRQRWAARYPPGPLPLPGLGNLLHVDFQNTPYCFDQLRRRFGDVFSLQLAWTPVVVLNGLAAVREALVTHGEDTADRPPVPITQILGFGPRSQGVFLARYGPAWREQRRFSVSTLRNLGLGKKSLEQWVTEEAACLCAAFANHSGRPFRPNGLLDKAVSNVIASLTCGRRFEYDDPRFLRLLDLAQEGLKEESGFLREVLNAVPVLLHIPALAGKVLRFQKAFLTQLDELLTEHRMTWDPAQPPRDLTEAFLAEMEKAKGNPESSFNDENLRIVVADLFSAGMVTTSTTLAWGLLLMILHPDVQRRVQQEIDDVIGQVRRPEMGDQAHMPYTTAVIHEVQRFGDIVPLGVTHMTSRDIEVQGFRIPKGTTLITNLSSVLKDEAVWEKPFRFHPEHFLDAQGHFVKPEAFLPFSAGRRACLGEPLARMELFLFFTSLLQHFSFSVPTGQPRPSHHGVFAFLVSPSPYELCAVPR

For COc1nc(-c2ccc(NC(=O)Nc3ccc(C(=O)NCCCCCC(=O)Nc4ccccc4N)cc3)cc2)nc(N2CCOCC2)n1, the Activity (JeKo-1 [1]) was “inactive”, the remaining at 0.75 h [2] was 35.8% and the Activity (JeKo-1 [3]) was 0.17%. The inhibition at 10 µM (CYP2C9) was 37.4%, the half-life [4] was 26.9 min and the remaining at 0.5 h [5] was 45%. It also gave an IC50 (Histone deacetylase 8) of over 10 µM, an IC50 (JeKo-1 [6]) of 500 nM and an Activity (JeKo-1 [7]) of 32.9%. For the same compound, the IC50 (Histone deacetylase 11) was over 10 µM, the remaining at 0.5 h [8] was 46.9% and the remaining at 0 min [9] was 100%. It also gave a half-life [10] of 600 min, a Vdss [11] of 719 mL/kg and a clearance [12] of 6.02 mL/min/kg. The Activity (JeKo-1 [13]) was 26.1%, the inhibition at 10 µM (CYP2D6) was 48.8% and the IC50 (Histone deacetylase 9) was over 10 µM. The remaining at 0.75 h [14] was 40.2%, the Activity (JeKo-1 [15]) was “inactive” and the IC50 (HL-60) was 900 nM. For the same compound, the remaining at 0 min [16] was 100%, the IC50 (Histone deacetylase 2) was 443 nM and the half-life [17] was 30.9 min. It also gave an IC50 (Histone deacetylase 7) of over 10 µM, an Activity (JeKo-1 [18]) of 70.4% and a remaining at 0.75 h [19] of 32.8%. The remaining at 0.5 h [20] was 46.9%, the Activity (JeKo-1 [21]) was 5.73% and the remaining at 0 min [22] was 100%. The IC50 [23] was over 10 µM, the AUC(0-inf) [24] was 2770 ng·h/mL and the IC50 (Histone deacetylase 1) was 306 nM. The IC50 (MDA-MB-231) was 1500 nM.
